Source: PMC4313523, “Decolorization of Anthraquinonic Dyes from Textile Effluent Using Horseradish Peroxidase: Optimization and Kinetic Study” (The Scientific World Journal, 2015)
Read-outs that look alike come from different tables or passages of the source.

Columns and labels:
[1] = test system: T1, horseradish peroxidase (HRP); assay: dye decolorization initial rates, fit to ping-pong bi-bi model with dye inhibition; format: biochemical; conditions: substrate inhibition (dead-end complex)
T1 construct: gene PRXC1A; commercial enzyme from Sigma-Aldrich, 250 purpurogallin units per mg
Text: dye decolorization initial rates, fit to ping-pong bi-bi model with dye inhibition on horseradish peroxidase (HRP)

[2] = test system: T1, horseradish peroxidase (HRP); assay: dye decolorization initial rates, fit to ping-pong bi-bi model with H2O2 inhibition (best fit); format: biochemical; conditions: read-out: Hydrogen peroxide inhibition

Compound	Dye inhibition ([1]; H2O2 fixed at 0.1 mM, dye 0.015-0.051 mM, pH 5.5, 24 °C, 0.04 IU/mL HRP, R2 0.9602) [mM]	Km ([2]; co-substrate H2O2 varied at dye 0.029 mM, pH 5.5, 24 °C, 0.04 IU/mL HRP, R2 0.9908) [µM]	Dye inhibition ([1]; H2O2 fixed at 0.06 mM, dye 0.012-0.043 mM, pH 5.25, 24 °C, 0.15 IU/mL HRP, R2 0.9225) [mM]	Km ([2]; co-substrate H2O2 varied at dye 0.018 mM, pH 5.25, 24 °C, 0.15 IU/mL HRP, R2 0.9902) [µM]
Cc1cc(C)c(Nc2cc(S(=O)(=O)O)c(N)c3c2C(=O)c2ccccc2C3=O)c(C)c1NC(=O)C(Br)=CBr [AB 225, C.I. Acid Blue 225]	0.0126	152	–	–
C.I. Acid Violet 109 [AV 109]	–	–	0.0080	330
